Results reported in ChEMBL document CHEMBL5136972, “Targeting SARS-CoV-2 Proteases and Polymerase for COVID-19 Treatment: State of the Art and Future Opportunities” (J Med Chem, 2022).

Assays:
[1] = Inhibition of MERS CoV 3CL protease using MCA-AVLQSGFR-Lys(Dnp)-Lys-NH2 as substrate by fluorescence based analysis; design: species or system Middle East respiratory syndrome-related coronavirus
[2] = test system: Murine hepatitis virus; experiment: Antiviral activity against MHV-A59 infected in African green monkey Vero cells assessed as inhibition of plaque formation by viral plaque assay; type: functional, organism-based; settings: Murine coronavirus
[3] = test system: Human coronavirus 229E; experiment: Antiviral activity against HCoV-229E infected in African green monkey Vero cells assessed as inhibition of plaque formation by viral plaque assay; type: functional, organism-based
[4] = test system: Murine hepatitis virus; experiment: Antiviral activity against MHV infected in African green monkey Vero cells assessed as inhibition of plaque formation by viral plaque assay; type: functional, organism-based; settings: Murine coronavirus
[5] = Cytotoxicity against African green monkey Vero cells; type: toxicity, cell-based; settings: chlorocebus sabaeus
[6] = test system: Feline infectious peritonitis virus; experiment: Antiviral activity against FIPV infected in African green monkey Vero cells assessed as inhibition of plaque formation by viral plaque assay; type: functional, organism-based; settings: Alphacoronavirus 1, Vero
[7] = Oral bioavailability in CD1 mouse at 150 mg/kg administered as single dose by LC-MS/MS analysis; type: ADME, organism-based; settings: in vivo
[8] = test system: SARS-CoV-2; experiment: Antiviral activity against SARS CoV-2 clinical isolate 2019-nCoV/USA-WA1/2020 infected in African green monkey Vero E6 cells incubated for 48 hrs by CellTiter-Glo assay; type: functional, organism-based; settings: Severe acute respiratory syndrome coronavirus 2, 2019-nCoV/USA-WA1/2020, Vero C1008, 48 h
[9] = test system: SARS-CoV; experiment: Antiviral activity against […] infected in HAE cells incubated for 48 hrs by qRT-PCR analysis; type: functional, organism-based
[10] = Half life in CD1 mouse at 50 mg/kg, po administered as single dose by LC-MS/MS analysis; type: ADME, organism-based; settings: in vivo
[11] = Half life in CD1 mouse at 500 mg/kg, po administered as single dose by LC-MS/MS analysis; type: ADME, organism-based; settings: in vivo
[12] = test system: Middle East respiratory syndrome-related coronavirus; experiment: Antiviral activity against […] infected in HAE cells incubated for 48 hrs by qRT-PCR analysis; type: functional, organism-based
[13] = Oral bioavailability in CD1 mouse at 50 mg/kg administered as single dose by LC-MS/MS analysis; type: ADME, organism-based; settings: in vivo
[14] = Half life in CD1 mouse at 150 mg/kg, po administered as single dose by LC-MS/MS analysis; type: ADME, organism-based; settings: in vivo
[15] = Oral bioavailability in CD1 mouse at 500 mg/kg administered as single dose by LC-MS/MS analysis; type: ADME, organism-based; settings: in vivo
[16] = test system: SARS-CoV-2; experiment: Antiviral activity against SARS CoV-2 clinical isolate 2019-nCoV/USA-WA1/2020 infected in human Calu-3 cells measured after 72 hrs by plaque assay; type: functional, organism-based; settings: Severe acute respiratory syndrome coronavirus 2, 2019-nCoV/USA-WA1/2020, Calu-3, 72 h
[17] = Cytotoxicity against African green monkey Vero E6 cells infected with SARS CoV-2 clinical isolate 2019-nCoV/USA-WA1/2020 incubated for 48 hrs by CellTiter-Glo assay; type: toxicity, cell-based, Vero C1008; settings: chlorocebus sabaeus
[18] = Drug distribution in CD1 mouse liver at 150 to 500 mg/kg, po measured after 8 hrs by LC-MS/MS analysis; type: ADME, organism-based; settings: in vivo, dose 150-500 mg/kg
[19] = Cytotoxicity against African green monkey Vero E6 cells incubated for 3 hrs by CCK-8 assay; type: toxicity, cell-based, Vero C1008; settings: chlorocebus sabaeus
[20] = test system: Middle East respiratory syndrome-related coronavirus; experiment: Antiviral activity against […] CoV infected in HAE cells measured after 48 hrs by CellTiter-Glo assay; type: functional, organism-based
[21] = test system: SARS-CoV-2; experiment: Antiviral activity against SARS CoV-2 infected in African green monkey Vero E6 cells assessed as inhibition of virus-induced cytopathic effect measured after 72 hrs by Reed-Muench method; type: functional, organism-based; settings: Severe acute respiratory syndrome coronavirus 2, Vero C1008, 72 h
[22] = in vivo; settings: C57BL/6J (wild type), mouse, sc, 25 mg/kg
[23] = in vivo; settings: C57BL/6J (Ces1c knockout), mouse, sc, 25 mg/kg
[24] = test system: SARS-CoV; experiment: Antiviral activity against SARS CoV infected in HAE cells measured after 48 hrs by CellTiter-Glo assay; type: functional, organism-based; settings: Severe acute respiratory syndrome-related coronavirus
[25] = test system: SARS-CoV-2; experiment: Antiviral activity against SARS CoV-2 infected in human Huh-7 cells measured up to 72 hrs by plaque assay; type: functional, organism-based; settings: Severe acute respiratory syndrome coronavirus 2, Huh-7, 72 h
[26] = AUClast in Beagle dog at 5 mg/kg, iv measured after up to 24 hrs by LC-MS/MS analysis; type: ADME, organism-based, Canis lupus familiaris; design: time < 24 hrs, dose 5 mg/kg, route iv; settings: in vivo
[27] = AUClast in Sprague-Dawley rat at 10 mg/kg, iv measured after up to 24 hrs by LC-MS/MS analysis; type: ADME, organism-based; design: time < 24 hrs, dose 10 mg/kg, route iv; settings: in vivo
[28] = biological target: T1, Replicase polyprotein 1ab (Severe acute respiratory syndrome coronavirus 2, UniProt P0DTD1); experiment: Inhibition of N-terminal recombinant SARS CoV 2 3CL protease expressed in Escherichia coli BL21-DE3 cells using MCA-AVLQSGFR-Lys(Dnp)-Lys-NH2 as substrate by FRET assay
[29] = Half life in Sprague-Dawley rat at 10 mg/kg, iv measured after up to 24 hrs by LC-MS/MS analysis; type: ADME, organism-based; settings: in vivo
[30] = Clearance in Sprague-Dawley rat at 10 mg/kg, iv measured after up to 24 hrs by LC-MS/MS analysis; type: ADME, organism-based; settings: in vivo
[31] = test system: SARS-CoV-2; experiment: Antiviral activity against SARS CoV-2 infected in African green monkey Vero cells assessed as inhibition of plaque formation by viral plaque assay; type: functional, organism-based; settings: Severe acute respiratory syndrome coronavirus 2, Vero
[32] = Bioavailability in CD-1 mouse at 5 mg/kg, iv measured after up to 24 hrs by LC-MS/MS analysis; type: ADME, organism-based; settings: in vivo
[33] = Half life in CD-1 mouse at 5 mg/kg, iv measured after up to 24 hrs by LC-MS/MS analysis; type: ADME, organism-based; settings: in vivo
[34] = Half life in Beagle dog at 5 mg/kg, iv measured after up to 24 hrs by LC-MS/MS analysis; type: ADME, organism-based, Canis lupus familiaris; settings: in vivo
[35] = Cytotoxicity against African green monkey Vero E6 cells by CCK-8 assay; type: toxicity, cell-based, Vero C1008; settings: chlorocebus sabaeus
[36] = Clearance in Beagle dog at 5 mg/kg, iv measured after up to 24 hrs by LC-MS/MS analysis; type: ADME, organism-based, Canis lupus familiaris; settings: in vivo
[37] = Cmax in CD-1 mouse at 5 mg/kg, iv measured after up to 24 hrs by LC-MS/MS analysis; type: ADME, organism-based; design: dose 5 mg/kg, time < 24 hrs, route iv; settings: in vivo
[38] = Clearance in CD-1 mouse at 5 mg/kg, iv measured after up to 24 hrs by LC-MS/MS analysis; type: ADME, organism-based; settings: in vivo
[39] = biological target: T1, Replicase polyprotein 1ab; experiment: Inhibition of SARS CoV-2 PL protease

SMILES: Cc1cc(C(=O)N[C@@H](C)C(=O)N[C@H](C(=O)N[C@@H](CC(C)C)C(=O)N[C@H](/C=C/C(=O)OCc2ccccc2)C[C@@H]2CCNC2=O)C(C)C)no1
- IC50 [1]: 0.3 µM
- EC50 [2]: 2.7 µM
- EC50 [3]: 4 µM
- EC50 [4]: 3.4 µM
- CC50 [5]: > 133 µM
- EC50 [6]: 8.8 µM

SMILES: O=c1nc(NO)ccn1[C@@H]1O[C@H](CO)[C@@H](O)[C@H]1O [N-HYDROXYCYTIDINE]
- bioavailability [7]: 43%
- EC50 [8]: 0.3 µM
- EC50 [9]: 0.14 µM
- half-life [10]: 5.2 h
- half-life [11]: 2.7 h
- EC50 [12]: 0.024 µM
- bioavailability [13]: 56%
- half-life [14]: 3.2 h
- bioavailability [15]: 36%
- EC50 [16]: 0.08 µM
- CC50 at 48 h [17]: > 10 µM
- Drug uptake [18]: 10 nmol/g

SMILES: O=C(O)[C@H]1O[C@@H](Oc2cc3oc(-c4ccccc4)cc(=O)c3c(O)c2O)[C@H](O)[C@@H](O)[C@@H]1O [BAICALIN]
- CC50 at 3 h [19]: > 200 µM

SMILES: O=c1cc(-c2ccccc2)oc2cc(O)c(O)c(O)c12 [BAICALEIN]
- CC50 at 3 h [19]: > 200 µM

SMILES: CCC(CC)COC(=O)[C@H](C)N[P@](=O)(OC[C@H]1O[C@@](C#N)(c2ccc3c(N)ncnn23)[C@H](O)[C@@H]1O)Oc1ccccc1
- EC50 [20]: 0.074 µM
- EC50 [21]: 0.651 µM
- half-life at 144 h [22]: < 5 min
- half-life at 144 h [23]: 0.417 h
- EC50 [24]: 0.069 µM
- EC50 [25]: 0.003 µM

SMILES: O=C[C@H](C[C@@H]1CCNC1=O)NC(=O)[C@H](CC1CC1)NC(=O)c1cc2ccccc2[nH]1
- AUC(0-t) at 24 h [26]: 14.9 µg·h/mL
- AUC(0-t) at 24 h [27]: 41.5 µg·h/mL
- IC50 [28]: 0.053 µM
- half-life [29]: 7.6 h
- clearance [30]: 0.241 L/h/kg
- EC50 [31]: 0.52 µM
- bioavailability [32]: > 85%
- half-life [33]: 4.4 h
- half-life [34]: 5.5 h
- CC50 [35]: > 100 µM
- clearance [36]: 0.348 L/h/kg
- Cmax [37]: > 2.36 µg/mL
- clearance [38]: 1.02 L/h/kg

SMILES: CC(=O)N[C@@H](CCc1ccc(O)cc1)C(=O)N[C@@H](CN)C(=O)NCC(=O)NC/C=C/C(=O)O
- IC50 [39]: 10 µM
